ChEMBL document CHEMBL1201862, “PubChem BioAssay data set” (2004)
Active and inactive are the calls of the source.

What was measured:
[1] = molecular target: T1, RNA-binding protein pos-1 (Caenorhabditis elegans, UniProt G5EF15); test: inhibitors of POS-1/mex-3 RNA binding, dose response, biochemical, fluorescence polarization (AID 1964);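 note: purified POS-1 fused to maltose binding protein made in E. coli; potency of compounds blocking POS-1 binding to fluorescent RNA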
T1 sequence (G5EF15 whole entry): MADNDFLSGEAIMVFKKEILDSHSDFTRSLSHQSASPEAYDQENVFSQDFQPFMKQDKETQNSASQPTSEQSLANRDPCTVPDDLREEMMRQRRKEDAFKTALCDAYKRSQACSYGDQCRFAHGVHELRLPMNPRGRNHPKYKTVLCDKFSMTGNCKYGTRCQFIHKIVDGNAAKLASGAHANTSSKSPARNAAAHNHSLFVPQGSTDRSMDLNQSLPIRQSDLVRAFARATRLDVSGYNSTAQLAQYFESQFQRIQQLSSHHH

[2] = molecular target: T2, Zinc finger protein mex-5 (Caenorhabditis elegans, UniProt Q9XUB2); test: MEX-5/TCR-2 RNA interaction inhibitors, dose response, biochemical, C. elegans, fluorescence polarization (AID 1960)
T2 sequence (Q9XUB2 whole entry): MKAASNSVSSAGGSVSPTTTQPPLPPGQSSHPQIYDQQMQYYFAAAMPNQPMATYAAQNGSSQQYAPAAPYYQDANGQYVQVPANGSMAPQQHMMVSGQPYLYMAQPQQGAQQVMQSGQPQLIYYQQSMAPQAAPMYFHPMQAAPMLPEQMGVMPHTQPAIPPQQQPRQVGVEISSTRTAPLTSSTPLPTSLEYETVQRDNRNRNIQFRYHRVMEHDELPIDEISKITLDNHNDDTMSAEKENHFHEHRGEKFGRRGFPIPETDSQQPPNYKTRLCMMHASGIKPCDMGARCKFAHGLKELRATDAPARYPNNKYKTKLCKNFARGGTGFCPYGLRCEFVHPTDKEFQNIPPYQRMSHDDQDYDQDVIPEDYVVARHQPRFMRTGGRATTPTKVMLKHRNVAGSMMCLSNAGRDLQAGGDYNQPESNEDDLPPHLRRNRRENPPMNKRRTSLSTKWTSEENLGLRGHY

[3] = Shn3 3'UTR reporter inhibitors, dose response, cell-based, Clone20 osteoblasts, firefly luciferase, cherry-picked (AID 624132); assay type: functional;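 note: firefly luciferase luminescence from reporter carrying the Shn3 3'UTR in osteoblasts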
[4] = control 3'UTR Renilla luciferase suppression, dose response, counter-screen for Shn3 inhibitor project, cell-based, Clone20-Shn3RL, cherry-picked (AID 624133); assay type: functional
H9c2 = test: cells; assay type: functional, cell-based; settings: Rattus norvegicus, H9c2, Myocardium
[5] = inhibitors of HIV Env-driven cell fusion, dose response, cherry-pick (AID 652057); assay type: functional, cell-based
[6] = ZM109 Env clade C HIV-1 fusion inhibitors, dose response, HeLa effector, CEM target cells, luciferase, cherry-pick (AID 652058); assay type: functional, cell-based
[7] = off-target signal loss in HeLa-CEM21 co-culture – HeLa F-luc CTL cells, cherry-picked, counter-screen for HIV-1 Env fusion inhibitor project, dose response (AID 652040); assay type: functional, cell-based;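 note: potency for signal decrease marking cytotoxic or nonspecific inhibition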
[8] = inhibitors of clade B AD8 Env fusion, dose response, cell-based, cherry-pick (AID 652062); assay type: functional;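 note: luciferase signal from cell-cell fusion driven by HIV-1 clade B AD8 Env; potency is for inhibitors of fusion seen as a drop in luminescence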
[9] = growth suppression of PTEN-null colon cells, dose response, cell-based, HCT116 PTEN knockout (AID 1047); assay type: functional;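 note: HCT116 colon tumor cells with PTEN knocked out; cells exposed to compound for 60 hours before readout; potency for loss of cell viability measured by luminescence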
[10] = growth suppression of beta-catenin-knockout colon cells, dose response, cell-based, HCT116, human colon tumor (AID 1045); assay type: functional;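 note: HCT116 colon tumor cells with beta catenin knocked out; cells exposed to compound for 60 hours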
Fatty acid synthase [11] = molecular target: T3, Fatty acid synthase (Homo sapiens, UniProt P49327); test: FAS thioesterase domain inhibitors, dose response, biochemical, endpoint fluorescence intensity, uHTS hits (AID 624327); assay type: functional;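 note: fluorescence from hydrolysis of an O-methyl fluorescein acyl ester substrate by the enzyme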
Fatty acid synthase [12] = molecular target: T3, Fatty acid synthase; test: FAS thioesterase domain inhibitors, dose response, biochemical, kinetic fluorescence intensity (AID 624326); assay type: functional;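 note: rate of fluorescence rise from hydrolysis of a fluorogenic O-methyl fluorescein ester substrate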
[13] = molecular target: T4, Corticotropin-releasing factor receptor 2/Corticotropin-releasing factor-binding protein (Homo sapiens, UniProt P24387+Q13324); test: Dose Response confirmation of uHTS hits for small molecule antagonists of the CRF-binding protein and CRF-R2 receptor complex.; assay type: functional; settings: read-out: IC50_Mean
T4 sequence (Q13324 whole entry): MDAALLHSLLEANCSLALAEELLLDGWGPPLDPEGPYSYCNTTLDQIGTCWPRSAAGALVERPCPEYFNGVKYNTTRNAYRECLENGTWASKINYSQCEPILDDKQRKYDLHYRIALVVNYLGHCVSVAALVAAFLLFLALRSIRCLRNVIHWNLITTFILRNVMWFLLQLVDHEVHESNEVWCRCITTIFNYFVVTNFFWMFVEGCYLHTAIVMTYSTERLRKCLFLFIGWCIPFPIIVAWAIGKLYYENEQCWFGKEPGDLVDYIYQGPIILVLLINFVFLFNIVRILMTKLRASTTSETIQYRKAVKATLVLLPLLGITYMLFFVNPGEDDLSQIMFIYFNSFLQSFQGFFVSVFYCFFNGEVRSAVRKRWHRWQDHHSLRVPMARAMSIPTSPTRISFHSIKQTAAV
T4 sequence (P24387 whole entry): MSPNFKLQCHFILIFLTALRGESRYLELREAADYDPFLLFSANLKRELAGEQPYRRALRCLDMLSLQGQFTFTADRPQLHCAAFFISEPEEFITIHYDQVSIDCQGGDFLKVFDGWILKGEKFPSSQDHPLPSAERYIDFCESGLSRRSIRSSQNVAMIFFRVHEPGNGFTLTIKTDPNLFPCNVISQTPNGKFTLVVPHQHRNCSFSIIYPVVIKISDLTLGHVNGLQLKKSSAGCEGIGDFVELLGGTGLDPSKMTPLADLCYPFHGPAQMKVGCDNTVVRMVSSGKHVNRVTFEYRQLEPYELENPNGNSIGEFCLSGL

[14] = molecular target: T4, Corticotropin-releasing factor receptor 2/Corticotropin-releasing factor-binding protein; test: activators of CRF receptor 2 with binding protein – uHTS hits, confirmation (AID 602473); assay type: functional; settings: read-out: EC50_Mean
[15] = tested on: Streptococcus sp. 'group A'; test: growth inhibition of control SK(-) GAS strain, dose response, counter-screen for streptokinase expression inhibitor project, luminescence, kanamycin, BacTiterGlo, confirmation (AID 1900); assay type: functional, organism-based
Streptococcus = test: Group A Streptococcus viability loss, dose response, counter-screen for streptokinase expression inhibitor project, luminescence, BacTiterGlo (AID 1915); assay type: functional, organism-based;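 note: potency for reduction of bacterial viability or growth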
[16] = NIH-3T3 fibroblast cytotoxicity, dose response, cytotoxicity control, cell-based, fluorescence, Alamar Blue, secondary assay (AID 2327); assay type: functional;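 note: NIH-3T3 mouse fibroblasts cultured with fluconazole at 8 µg/mL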
[17] = inhibitors of firefly luciferase expression or activity, dose response, H4 neuroglioma cells, luminescence (AID 1990); assay type: functional, cell-based
[18] = Luminescence Cell-Based Dose Response HTS to Identify Inhibitors of 5'UTR Stem-Loop Driven Prion Protein mRNA Translation in H4 Neuroglioblastoma Cells. [Related pubchem assays: 1827 (Project Summary), 1813 (Primary HTS)]; assay type: functional
[19] = inhibitors of SNCA 5'UTR-driven reporter translation, confirmation, H4 neuroglioma cells, luminescence (AID 1988); assay type: functional, cell-based
[20] = inhibitors of intracellular T. cruzi replication, confirmation, NIH3T3 host cells, beta-gal luminescence (AID 2044); assay type: functional, cell-based;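 note: intracellular parasites grown in NIH/3T3 mouse fibroblasts as host cells; luminescent beta-galactosidase reporter signal from transgenic T. cruzi replicating inside host cells; inhibitors lower the luminescence signal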
[21] = cytotoxicity toward NIH3T3 fibroblasts, dose response, counter-screen, cell-based, ATP luminescence, mouse fibroblasts (AID 2010); assay type: functional;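 note: cells exposed to compound for about 90 hours before reading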

T3 sequence (P49327 whole entry, the tested form may be a part): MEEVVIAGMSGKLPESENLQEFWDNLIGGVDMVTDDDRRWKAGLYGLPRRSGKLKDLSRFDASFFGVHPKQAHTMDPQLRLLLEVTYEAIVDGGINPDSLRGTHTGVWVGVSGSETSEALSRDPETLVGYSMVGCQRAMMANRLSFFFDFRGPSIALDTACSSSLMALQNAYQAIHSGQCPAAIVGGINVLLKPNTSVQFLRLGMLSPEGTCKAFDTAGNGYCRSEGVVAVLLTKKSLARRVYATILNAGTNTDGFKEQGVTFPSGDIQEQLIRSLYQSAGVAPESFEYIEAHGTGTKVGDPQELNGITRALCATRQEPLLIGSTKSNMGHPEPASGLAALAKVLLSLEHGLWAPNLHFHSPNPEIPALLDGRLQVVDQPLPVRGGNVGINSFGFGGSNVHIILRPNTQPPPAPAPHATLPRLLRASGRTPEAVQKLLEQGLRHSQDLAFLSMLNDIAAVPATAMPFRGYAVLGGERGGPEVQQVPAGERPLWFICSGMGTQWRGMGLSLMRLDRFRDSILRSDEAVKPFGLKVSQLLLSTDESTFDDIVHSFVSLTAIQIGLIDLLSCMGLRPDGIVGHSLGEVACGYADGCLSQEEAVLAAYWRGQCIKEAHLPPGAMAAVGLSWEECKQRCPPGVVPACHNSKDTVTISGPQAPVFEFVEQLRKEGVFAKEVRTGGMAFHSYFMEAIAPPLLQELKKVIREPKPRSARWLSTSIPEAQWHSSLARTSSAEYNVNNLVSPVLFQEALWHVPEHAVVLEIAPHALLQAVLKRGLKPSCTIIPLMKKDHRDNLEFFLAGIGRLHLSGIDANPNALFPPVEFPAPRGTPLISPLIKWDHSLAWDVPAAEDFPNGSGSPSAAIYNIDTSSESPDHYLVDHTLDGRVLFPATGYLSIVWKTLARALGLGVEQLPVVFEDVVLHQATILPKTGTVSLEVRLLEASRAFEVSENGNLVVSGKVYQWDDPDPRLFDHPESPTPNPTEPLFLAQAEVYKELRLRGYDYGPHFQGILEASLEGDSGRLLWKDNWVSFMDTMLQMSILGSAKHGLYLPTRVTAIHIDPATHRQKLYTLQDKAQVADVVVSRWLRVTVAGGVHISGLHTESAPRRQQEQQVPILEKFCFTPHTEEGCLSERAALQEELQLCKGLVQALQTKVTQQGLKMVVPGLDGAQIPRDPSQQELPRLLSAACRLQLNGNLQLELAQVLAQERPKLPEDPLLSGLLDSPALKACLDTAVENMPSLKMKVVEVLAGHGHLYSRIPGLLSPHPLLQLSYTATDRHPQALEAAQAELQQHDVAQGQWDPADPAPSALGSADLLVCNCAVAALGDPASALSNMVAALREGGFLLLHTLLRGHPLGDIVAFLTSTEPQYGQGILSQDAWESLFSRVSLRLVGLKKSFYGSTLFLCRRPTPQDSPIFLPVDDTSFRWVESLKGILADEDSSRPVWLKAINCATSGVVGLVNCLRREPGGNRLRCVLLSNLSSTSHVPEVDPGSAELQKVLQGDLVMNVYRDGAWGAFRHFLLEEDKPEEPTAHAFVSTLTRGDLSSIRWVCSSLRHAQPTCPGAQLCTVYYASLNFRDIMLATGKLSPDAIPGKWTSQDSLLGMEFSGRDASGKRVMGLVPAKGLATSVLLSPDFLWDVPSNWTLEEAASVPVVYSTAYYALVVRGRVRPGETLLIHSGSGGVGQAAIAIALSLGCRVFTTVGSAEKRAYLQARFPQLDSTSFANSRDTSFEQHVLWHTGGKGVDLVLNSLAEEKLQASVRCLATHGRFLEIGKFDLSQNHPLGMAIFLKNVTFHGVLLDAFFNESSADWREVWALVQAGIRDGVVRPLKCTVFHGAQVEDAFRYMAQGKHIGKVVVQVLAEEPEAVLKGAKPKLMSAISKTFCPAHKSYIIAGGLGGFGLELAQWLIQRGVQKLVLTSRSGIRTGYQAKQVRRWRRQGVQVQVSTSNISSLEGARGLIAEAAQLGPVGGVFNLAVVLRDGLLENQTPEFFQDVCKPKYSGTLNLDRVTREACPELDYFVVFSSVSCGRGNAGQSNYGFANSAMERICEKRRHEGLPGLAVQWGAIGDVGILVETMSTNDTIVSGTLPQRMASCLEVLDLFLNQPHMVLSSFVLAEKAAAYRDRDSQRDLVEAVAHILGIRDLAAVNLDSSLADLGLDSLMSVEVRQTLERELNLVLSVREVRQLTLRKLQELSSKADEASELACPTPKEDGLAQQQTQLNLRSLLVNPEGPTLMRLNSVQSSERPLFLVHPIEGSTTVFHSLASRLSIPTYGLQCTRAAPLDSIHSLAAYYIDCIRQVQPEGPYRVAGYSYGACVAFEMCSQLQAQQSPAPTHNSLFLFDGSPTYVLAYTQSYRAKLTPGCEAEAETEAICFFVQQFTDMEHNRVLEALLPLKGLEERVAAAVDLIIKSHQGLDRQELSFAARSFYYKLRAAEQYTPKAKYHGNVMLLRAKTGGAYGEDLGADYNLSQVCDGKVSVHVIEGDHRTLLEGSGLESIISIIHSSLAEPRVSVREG

## COc1cc(C2C(C#N)=C(N)OC3=C2C(=O)CC(C)(C)C3)cc([N+](=O)[O-])c1O (stereo unspecified)
[1]
  EC50: > 300 µM (not active)
[2]
  EC50: > 300 µM (not active)

## Cc1cc(C=C2C(=O)c3ccccc3C2=O)c(C)n1-c1ccc(C(=O)O)cc1
[1]
  EC50: > 300 µM (not active)
[2]
  EC50: > 300 µM (not active)

## CCOc1ccccc1N1CCN(C(=O)CNC(=O)c2ccccc2F)CC1
[1]
  EC50: > 300 µM (not active)
[2]
  EC50: > 300 µM (not active)

## CCCc1nc([N+](=O)[O-])c(S(=O)(=O)c2ccccc2)n1CC(C)C
[3]
  AC50: 7.39 µM (active)
[4]
  AC50: 25.9 µM (active)

## O=c1[nH]c(CSc2ncccn2)nc2c1cnn2-c1ccccc1
[1]
  EC50: 166 µM (inconclusive)
[2]
  EC50: > 300 µM (not active)

## O=C(CSc1nc(O)c2ccccc2n1)c1ccc(O)cc1O
H9c2
  IC50: > 79 µM (inactive)

## CCOC(=O)[C@@H]1[C@H]2COc3ccc(Br)cc3[C@@H]2N2C(=O)N(c3cccc(F)c3)C(=O)[C@@]12C
[5]
  AC50: 2.7 µM (active)
[6]
  AC50: 4.41 µM (active)
[7]
  AC50: 2.45 µM (active)
[8]
  AC50: 4.21 µM (active)

## O=C(CNC(=O)c1[nH]cnc1C(=O)NC(c1ccccc1)c1ccccc1)OCc1ccccc1
H9c2
  IC50: > 79 µM (inactive)

## COc1ccc(/C=C(\C#N)c2nc3cc(C)ccc3[nH]2)cc1Oc1ccc(C(F)(F)F)cc1[N+](=O)[O-]
[9]
  EC50: 4.59 µM (active)
[10]
  EC50: 8.78 µM (active)

## CSCCC(NS(=O)(=O)c1ccccc1)C(=O)OCc1cc(=O)oc2cc(O)ccc12 (stereo unspecified)
H9c2
  IC50: > 79 µM (inactive)

## Cc1ccc(-c2nnc(O)c3ccccc23)cc1S(N)(=O)=O
H9c2
  IC50: 21.8 µM (active)

## COc1ccc(OC)c(C2=C/C(=C/c3ccccn3)C(=O)O2)c1
[1]
  EC50: > 300 µM (not active)
[2]
  EC50: 45.8 µM (active)

## CC(C)(C)c1ccc(OCCC(=O)OCC(=O)NC2CCCCC2)cc1
Fatty acid synthase [11]
  IC50: 8.28 µM (active)
Fatty acid synthase [12]
  IC50: 5.35 µM (active)

## CC(OC(=O)c1ccc(NC(=O)CC#N)cc1)C(=O)NCCC1=CCCCC1 (stereo unspecified)
[6]
  AC50: 0.439 µM (active)

## COc1ccc(Cl)cc1NC(=O)CN(C)C(=O)CCCc1c[nH]c2ccccc12
[5]
  AC50: 3.29 µM (active)
[6]
  AC50: 5.13 µM (active)
[7]
  AC50: 4.68 µM (active)
[8]
  AC50: 4.6 µM (active)

## O=C(Oc1cccc(N2C(=O)C3C4c5ccccc5C(c5ccccc54)C3C2=O)c1)c1ccco1 (stereo unspecified)
Fatty acid synthase [11]
  IC50: 33.4 µM (inactive)
Fatty acid synthase [12]
  IC50: 28.5 µM (inactive)

## COc1ccc(-c2csc3ncnc(Oc4ccc5c(C)cc(=O)oc5c4)c23)cc1
[9]
  EC50: 24.8 µM (active)
[10]
  EC50: 47.3 µM (active)

## C[C@H](NC(=O)C1CCN(S(=O)(=O)c2ccccc2)CC1)C(=O)NCc1ccc(Cl)c(Cl)c1
Fatty acid synthase [11]
  IC50: 12.4 µM (active)
Fatty acid synthase [12]
  IC50: 14.5 µM (active)

## O=C(Nc1ccccc1)c1nc[nH]c1C(=O)NCCNC(=O)c1[nH]cnc1C(=O)Nc1ccccc1
H9c2
  IC50: > 79 µM (inactive)

## CC[C@@]1(C(=O)OC)N[C@H](CN(C)C(=O)Nc2ccc(OC)cc2)[C@@H]2C(=O)N(Cc3ccccc3)C(=O)[C@@H]21
[5]
  AC50: 1.1 µM (active)
[6]
  AC50: 1.71 µM (active)
[7]
  AC50: 1.46 µM (active)
[8]
  AC50: 1.32 µM (active)

## COc1ccccc1N(C)S(=O)(=O)c1ccc(Cl)c(C(=O)NCC2(N(C)C)CCCCC2)c1
[5]
  AC50: 2.92 µM (active)
[6]
  AC50: 3.96 µM (active)
[7]
  AC50: 5.54 µM (active)
[8]
  AC50: 3.32 µM (active)

## Cc1c(Cl)c(=O)oc2cc(OCC(=O)N3CCCC(C)C3)ccc12 (stereo unspecified)
Fatty acid synthase [11]
  IC50: 6.55 µM (active)
Fatty acid synthase [12]
  IC50: 10.3 µM (active)

## COc1ccc(CCn2c(=O)c3cccnc3n(Cc3ccc([N+](=O)[O-])cc3)c2=O)cc1OC
H9c2
  IC50: > 79 µM (inactive)

## COC(=O)[C@]1(C)N[C@H](CN(C)C(=O)Nc2ccc(Cl)cc2)[C@@H]2C(=O)N(Cc3ccccc3)C(=O)[C@@H]21
[5]
  AC50: 0.659 µM (active)
[6]
  AC50: 1.12 µM (active)
[7]
  AC50: 1.5 µM (active)
[8]
  AC50: 1.3 µM (active)

## O=C(COc1ccc2c3c(c(=O)oc2c1)CCC3)N1CCN(c2ccccc2)CC1
Fatty acid synthase [11]
  IC50: 12.2 µM (active)
Fatty acid synthase [12]
  IC50: 8.68 µM (active)

## C=CCOC(=O)COc1ccc2c3c(c(=O)oc2c1)CCCC3
H9c2
  IC50: 14.5 µM (active)

## COCCn1cnc2c(c1=O)c1nc3ccccc3nc1n2/N=C/c1cccc(OC)c1
H9c2
  IC50: 24.5 µM (active)
[13]
  IC50: > 47.1 µM (inactive)
[14]
  EC50: > 53 µM (inactive)

## COc1ccc2[nH]c3c(c2c1)CCN1C(=O)C(CC(=O)NCCC2=CCCCC2)C[C@H](C(=O)N2CCOCC2)[C@@]31CCC1CCCC1 (stereo partly specified)
Fatty acid synthase [11]
  IC50: 44.9 µM (inactive)
Fatty acid synthase [12]
  IC50: 80 µM (inactive)

## COc1cc([N+](=O)[O-])cc(/C=N/NC(=O)c2cccnc2)c1O
[15]
  EC50: 2.99 µM (active)
Streptococcus
  EC50: 1.76 µM (active)
Fatty acid synthase [11]
  IC50: 9.23 µM (active)
Fatty acid synthase [12]
  IC50: 9.94 µM (active)

## Nc1c(S(=O)(=O)c2cccc(Cl)c2)c2nc3ccccc3nc2n1/N=C/c1ccc(O)c(O)c1
[16]
  EC50: > 160 µM (inconclusive)
[17]
  EC50: 11.4 µM (active)
[18]
  EC50: 12.5 µM (active)
[19]
  EC50: 9.66 µM (active)
[20]
  EC50: 3.16 µM (active)
[21]
  EC50: 6.98 µM (active)

## O=C(Cn1nnc(-c2ccccc2Cl)n1)N/N=C/c1ccc(-c2cccc(Cl)c2)o1
[9]
  EC50: 20.1 µM (active)
[10]
  EC50: 39.1 µM (active)
